According to paper PMC10223019, “Preclinical Evaluation of a PSMA-Targeting Homodimer with an Optimized Linker for Imaging of Prostate Cancer” (Molecules, 2023):
Values joined by “and” are separate entries in the source; they are usually repeats but may differ in a detail not shown here. Equal entries are not always repeated.

Columns and labels:
[1] = biological target: T1, Recombinant human PSMA (rhPSMA) (Homo sapiens, UniProt Q04609); test: NAALADase assay (competitive inhibition, Amplex Red glutamate readout); assay type: biochemical; details: for IC50: rhPSMA, substrate Ac-Asp-Glu, 1 h 37 °C
T1 construct: purchased R&D systems, Abingdon, UK
T1 sequence (Q04609 whole entry): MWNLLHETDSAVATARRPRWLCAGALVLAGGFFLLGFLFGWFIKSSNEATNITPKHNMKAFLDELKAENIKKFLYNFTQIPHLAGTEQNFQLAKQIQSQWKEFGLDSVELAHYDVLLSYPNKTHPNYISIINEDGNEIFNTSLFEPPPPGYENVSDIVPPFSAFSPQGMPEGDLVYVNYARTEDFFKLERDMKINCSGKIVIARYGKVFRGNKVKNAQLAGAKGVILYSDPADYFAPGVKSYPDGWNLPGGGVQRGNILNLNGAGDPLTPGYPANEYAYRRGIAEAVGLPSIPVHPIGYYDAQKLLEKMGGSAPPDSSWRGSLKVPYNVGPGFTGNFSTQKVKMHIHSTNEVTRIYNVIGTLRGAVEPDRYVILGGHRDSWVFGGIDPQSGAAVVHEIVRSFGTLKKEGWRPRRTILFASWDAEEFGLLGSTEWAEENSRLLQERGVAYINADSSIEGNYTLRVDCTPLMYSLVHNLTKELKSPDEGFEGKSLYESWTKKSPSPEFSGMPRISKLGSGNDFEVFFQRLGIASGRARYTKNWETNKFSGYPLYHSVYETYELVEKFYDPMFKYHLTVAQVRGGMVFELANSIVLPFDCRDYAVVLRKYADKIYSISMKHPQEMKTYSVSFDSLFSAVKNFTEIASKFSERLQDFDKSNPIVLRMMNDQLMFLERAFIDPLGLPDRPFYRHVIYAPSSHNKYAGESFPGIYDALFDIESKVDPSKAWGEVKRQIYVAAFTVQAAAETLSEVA
Procedure: Recombinant human PSMA (rhPSMA; R&D systems, Abingdon, UK) was diluted in assay buffer (50 mM HEPES, 0.1 M NaCl, pH 7.5) to 0.4 μg/mL. The substrate Ac–Asp–Glu (40 μM) was mixed with the synthesized derivatives and with a reference (PSMA-617) at concentrations ranging from 10^−6 to 10^−13 M in a final volume of 12.5 μL assay buffer. The mixtures were combined with 12.5 μL of the rhPSMA solution and incubated for 1 h at 37 °C in 384-well black polystyrene microplates (ThermoFisher, Bleiswijk, The Netherlands). The amount of glutamate released was measured by incubating with 25 μL of a working solution of the Amplex Red glutamic acid kit (ThermoFisher, Bleiswijk, The Netherlands) at 37 °C for 30 min. Fluorescence was measured with a HIDEX Sense Optical System (Goedereede, The Netherlands) with excitation at 535 nm and emission at 590 nm. Data were normalized and analyzed using a one-site total binding regression with GraphPad Prism v9.0 (GraphPad Software, San Diego, CA, USA).

[2] = Stability in phosphate-buffered saline (PBS), radio-HPLC; assay type: physicochemical; details: 24 h post-incubation, 37 °C, indium-111 labeled, intact fraction
Procedure: [^111In]In-22 or [^111In]In-30 (~10 MBq, 20 µL) was mixed with 80 μL of PBS (0.01 M, pH 7.4) and incubated at 37 °C for up to 24 h. A sample of the PBS solution was loaded directly onto the radio-HPLC at 1, 4, and 24 h post-incubation.

[3] = Stability in mouse serum, radio-HPLC; assay type: in vitro ADME; details: 24 h post-incubation, 37 °C, indium-111 labeled, intact fraction
Procedure: [^111In]In-22 or [^111In]In-30 (~35 MBq, 70 µL) was mixed with 330 μL of mouse serum and incubated at 37 °C for up to 24 h. After 1, 4, and 24 h incubation, 50 μL of the mouse serum solution was added to a separate vial containing 50 µL of acetonitrile. The sample was centrifuged at 5000× g for 20 min. The supernatant was analyzed by radio-HPLC.

[4] = LogD7.4 by shake-flask method (PBS/n-octanol); assay type: physicochemical; details: PBS/n-octanol (1:1 v/v); LogD7.4, PBS pH 7.4/n-octanol, indium-111 labeled compound; read-out: LogD
Procedure: The distribution coefficients (LogD7.4 values) were determined by a shake-flask method, in which 2 μL (~0.5 MBq) of the labeling solution ([^111In]In-22 or [^111In]In-30) were added to an Eppendorf tube containing 1 mL of PBS (0.01 M, pH 7.4)/n-octanol (v/v, 1:1). After vigorous vortexing, the solution was centrifuged at 2500× g for 15 min for phase separation. Samples (3 × 10 μL) of the two phases were taken out and measured in a gamma counter. LogD7.4 values were calculated by using the following equation: LogD7.4 = log [(counts in octanol phase)/(counts in aqueous phase)] and the experiment was performed in triplicate.

[5] = tested on: PSMA expressing LS174T cells; test: Internalization and cell uptake assay; assay type: cell-based, human; details: 2 h 37 °C
Procedure: LS174T human colon carcinoma cells transfected with human PSMA were obtained from Dr. Sandra Heskamp (Radboud UMC, Nijmegen). Cells were cultured in RPMI-1640 media supplemented with 2 mM glutamine, 10% fetal bovine serum (FBS) and 0.3 mg/mL G418 (Geneticin, Sigma Aldrich, St. Louis, MO, USA).
Cells were seeded (1.2 × 10^6 cells/well) and cultured to confluency for 24 h prior to experiments. We prepared 10^−9 M solutions of [^111In]In-PSMA-617, [^111In]In-22, and [^111In]In-30 in internalization media (RPMI, 20 mM HEPES, 1% BSA, pH 7.4). The media were removed from each well, and they were rinsed twice with PBS at rt. 2 mL of the radioactive compound was then added to each well and incubated at 37 °C for 2 h. For the internalization assay, the media containing radioactive compound were removed, and each well was washed twice with cold PBS. A total of 1 mL of Glycine buffer (50 mM glycine, 100 mM NaCl, pH 2.8) was added immediately and incubated for 10 min at rt. The glycine wash was then collected into counting tubes (membrane-bound fraction). An extra wash was performed and collected in the same tubes. A total of 1 mL of NaOH (1 M) was then added to each tube and left for 15 min at rt. The lysate (internalized fraction) was then collected in separate counting tubes, together with one extra NaOH wash. Data were normalized to 1,000,000 cells and percentage added dose.

[6] = tested on: BALB/c nude mice bearing LS174T PSMA-positive tumor xenografts; test: Ex vivo biodistribution studies; assay type: in vivo; details: 24 h p.i.
Procedure: Animal experiments were performed in 8–10 weeks old male BALB/c nude mice (Janvier Labs, Le Genest-Saint-Isle, France). Animals were housed in individually ventilated cages (Blue line IVC, 4 mice per cage) under nonsterile standard conditions with cage enrichment present and free access to chlorophyll-free animal chow (Sniff GmbH, Soest, Germany) and water and acclimated for 1 week before experiments. Mice were subcutaneously inoculated with 4.0 × 10^6 LS174T cells in the right flank, diluted in 100 μL of cell suspension. Seven days after tumor cell inoculation, when xenografts were approximately 0.2–0.3 cm^3, the tracers were injected intravenously via the tail vein. All experiments were approved by the institutional Animal Welfare Committee and were conducted in accordance with the guidelines of the Revised Dutch Act on Animal Experimentation (WOD).
Mice were intravenously injected with ~1 nmol of either [^111In]In-PSMA-617, [^111In]In-22 or [^111In]In-30 with molar activity of 5 MBq/nmol for ex vivo biodistribution studies. Mice (n = 4/timepoint) were euthanized by cervical dislocation at 1, 4, and 24 h p.i. A block group was included, and mice were euthanized at 4 h p.i. Organs were collected in tubes and counted in the gamma counter, where the calibration factor was determined by measuring different known activities of indium-111.

| Structure (SMILES) | IC50 [1] | also measured |
| --- | --- | --- |
| NCCCCCC(=O)NCCCCC(NC(=O)NC(CCC(=O)O)C(=O)O)C(=O)O (centres unmarked) [Compound 1] | 9.86 ± 1.7 nM |  |
| N[C@@H](Cc1ccccc1)C(=O)NCCCCCC(=O)NCCCC[C@H](NC(=O)N[C@@H](CCC(=O)O)C(=O)O)C(=O)O [Compound 6] | 3.17 ± 0.5 nM |  |
| N[C@@H](Cc1ccccc1)C(=O)NCCC(=O)NCCCCCC(=O)NCCCC[C@H](NC(=O)N[C@@H](CCC(=O)O)C(=O)O)C(=O)O [Compound 4] | 2.86 ± 0.3 nM |  |
| CC(C)C[C@H](NC(=O)C[C@H](O)[C@@H](N)CC(C)C)[C@@H](O)CC(=O)NCCCCCC(=O)NCCCC[C@H](NC(=O)N[C@@H](CCC(=O)O)C(=O)O)C(=O)O [Compound 11] | 6.5 ± 0.4 nM |  |
| CC(C)C[C@H](NC(=O)[C@H](Cc1ccccc1)NC(=O)[C@@H](N)Cc1ccc(O)cc1)[C@@H](O)CC(=O)NCCCCCC(=O)NCCCC[C@H](NC(=O)N[C@@H](CCC(=O)O)C(=O)O)C(=O)O [Compound 17] | 2.62 ± 0.4 nM |  |
| CC(C)C[C@H](NC(=O)[C@@H](Cc1ccccc1)NC(=O)[C@H](CC(=O)O)NC(=O)CCC(C(=O)O)N1CCN(CC(=O)O)CCN(CC(=O)O)CCN(CC(=O)O)CC1)[C@@H](O)CC(=O)NCCCCCC(=O)NCCCC[C@H](NC(=O)N[C@@H](CCC(=O)O)C(=O)O)C(=O)O (stereo partly drawn) [Compound 23, EuK(Ahx-Sta-D-Phe-Asp-DOTA-GA)] |  | logD [4]: -3.21 ± 0.07 |
| NCCC(=O)NCCCCCC(=O)NCCCC[C@H](NC(=O)N[C@@H](CCC(=O)O)C(=O)O)C(=O)O [Compound 2, EuK(Ahx-Ala)] | 23.1 ± 3.1 nM |  |
| NCCC(=O)NCCC(=O)NCCCCCC(=O)NCCCC[C@H](NC(=O)N[C@@H](CCC(=O)O)C(=O)O)C(=O)O [Compound 3] | 20.1 ± 2.7 nM |  |
| CC(C)C[C@H](NC(=O)CCN)[C@@H](O)CC(=O)NCCCCCC(=O)NCCCC[C@H](NC(=O)N[C@@H](CCC(=O)O)C(=O)O)C(=O)O [Compound 13] | 6.15 ± 0.6 nM |  |
| CC(C)C[C@H](NC(=O)[C@@H](Cc1ccccc1)NC(=O)[C@H](CC(=O)O)NC(=O)CCC(C(=O)O)N1CCN(CC(=O)[O-])CCN(CC(=O)[O-])CCN(CC(=O)[O-])CC1)[C@@H](O)CC(=O)NCCCCCC(=O)NCCCC[C@H](NC(=O)N[C@@H](CCC(=O)O)C(=O)O)C(=O)O.[111In+3] (some centres unmarked) [[^111In]In-23] |  | Stability in PBS (%) [2]: > 90%; Stability in Mouse Serum (%) [3]: > 90% |
| CC(C)C[C@H](N)[C@@H](O)CC(=O)NCCC(=O)NCCCCCC(=O)NCCCC[C@H](NC(=O)N[C@@H](CCC(=O)O)C(=O)O)C(=O)O [Compound 5] | 10.1 ± 3.2 nM |  |
| N[C@@H](Cc1ccccc1)C(=O)N[C@@H](Cc1ccccc1)C(=O)NCCCCCC(=O)NCCCC[C@H](NC(=O)N[C@@H](CCC(=O)O)C(=O)O)C(=O)O [Compound 7] | 1.72 ± 0.4 nM |  |
| CC(C)C[C@H](N)[C@@H](O)CC(=O)NCCCCCC(=O)NCCCC[C@H](NC(=O)N[C@@H](CCC(=O)O)C(=O)O)C(=O)O [Compound 10] | 6.83 ± 0.5 nM |  |
| NCCC(=O)N[C@@H](Cc1ccccc1)C(=O)NCCCCCC(=O)NCCCC[C@H](NC(=O)N[C@@H](CCC(=O)O)C(=O)O)C(=O)O [Compound 8] | 4.53 ± 0.4 nM |  |

Further lines, with some results ahead:

| IC50 [1] | Structure (SMILES) | also measured |
| --- | --- | --- |
| 3.33 ± 0.4 nM | CC(C)C[C@H](NC(=O)[C@H](Cc1ccccc1)NC(=O)[C@@H](N)Cc1ccccc1)[C@@H](O)CC(=O)NCCCCCC(=O)NCCCC[C@H](NC(=O)N[C@@H](CCC(=O)O)C(=O)O)C(=O)O [Compound 18] |  |
| 1.66 nM and 1 to 1.6 nM | CC(C)C[C@H](NC(=O)[C@H](Cc1ccccc1)NC(=O)[C@H](CC(=O)O)NC(=O)CCC(C(=O)O)N1CCN(CC(=O)O)CCN(CC(=O)O)CCN(CC(=O)O)CC1)[C@@H](O)CC(=O)NCCCCCC(=O)NCCCC[C@H](NC(=O)N[C@@H](CCC(=O)O)C(=O)O)C(=O)O (stereo partly drawn) [Compound 22, EuK(Ahx-Sta-L-Phe-Asp-DOTA-GA)] | IC50 of 22 (L-Phe) relative to 23 (D-Phe) ([1]; comparison in words): two-fold better; Stability in PBS (%) [2]: > 90%; Stability in Mouse Serum (%) [3]: > 90%; logD [4]: -3.26 ± 0.05 |
| 0.9 ± 0.3 nM | O=C(O)CC[C@H](NC(=O)N[C@@H](CCCCNC(=O)[C@H](Cc1ccc2ccccc2c1)NC(=O)[C@H]1CC[C@H](CNC(=O)CN2CCN(CC(=O)O)CCN(CC(=O)O)CCN(CC(=O)O)CC2)CC1)C(=O)O)C(=O)O [PSMA-617, reference compound] | Internalized fraction as share of total uptake (internalization) [5]: 34.1%; Tumor-to-muscle (T/M) ratio [6]: 26 |
| 2.1 ± 0.4 nM | CC(C)C[C@H](NC(=O)[C@H](Cc1ccccc1)NC(=O)[C@@H](N)CN)[C@@H](O)CC(=O)NCCCCCC(=O)NCCCC[C@H](NC(=O)N[C@@H](CCC(=O)O)C(=O)O)C(=O)O [Compound 15] |  |
| 1.03 ± 0.5 nM | CC(C)C[C@H](NC(=O)[C@H](Cc1ccccc1)NC(=O)[C@@H](N)CC(=O)O)[C@@H](O)CC(=O)NCCCCCC(=O)NCCCC[C@H](NC(=O)N[C@@H](CCC(=O)O)C(=O)O)C(=O)O [Compound 16, EuK(Ahx-Sta-Phe-Asp)] |  |
| 1.73 ± 0.7 nM | CC(C)C[C@H](NC(=O)[C@H](Cc1ccccc1)NC(=O)CN1CCN(CC(=O)O)CCN(CC(=O)O)CCN(CC(=O)O)CC1)[C@@H](O)CC(=O)NCCCCCC(=O)NCCCC[C@H](NC(=O)N[C@@H](CCC(=O)O)C(=O)O)C(=O)O [Compound 14] |  |
| 1.22 ± 0.3 nM | CC(C)C[C@H](NC(=O)[C@H](Cc1ccccc1)NC(=O)C[C@H](O)[C@@H](N)CC(C)C)[C@@H](O)CC(=O)NCCCCCC(=O)NCCCC[C@H](NC(=O)N[C@@H](CCC(=O)O)C(=O)O)C(=O)O [Compound 19] |  |
| 7 ± 0.3 nM | CC(C)C[C@H](N)[C@@H](O)CC(=O)N[C@@H](Cc1ccccc1)C(=O)NCCCCCC(=O)NCCCC[C@H](NC(=O)N[C@@H](CCC(=O)O)C(=O)O)C(=O)O [Compound 9] |  |
